What was measured:
DGKα = biological target: T1, DGKα (Homo sapiens, UniProt P23743); test: In vitro DGKα inhibition assay (ADP-Glo); assay type: biochemical; conditions: His-tagged human recombinant enzyme, 0.1 nM DGKα, 50 μM ATP, 20 μM DLG, 90 minute incubation
T1 construct: His; purchased Signal Chem D21-10BH
Protocol: (§1) The DGKα and DGKζ biochemical reactions were performed using His-tagged human recombinant enzymes (Signal Chem, DGKα, #D21-10BH; DGKζ, #D30-10H)) and DLG (Dilauroyl-sn-glycerol) lipid substrate (Signal Chem, #D430-59). ADP-Glo assay was performed using ADP-Glo™ kinase Assay kit (Promega, #V9104). The reactions were carried out in assay buffer containing 40 mM Tris, pH 7.5, 0.1% CHAPS, 0.1% Prionex, 40 mM NaCl, 5 mM MgCl2, 1 mM CaCl2, and 1 mM DTT. DGKα reactions contained 0.1 nM DGKα, 50 μM ATP, and 20 μM DLG. And DGKζ reactions contained 0.4 nM DGKζ, 30 μM ATP, and 20 μM DLG.
(§2) For compound inhibition studies, 40 nL test compound in DMSO was added to wells of white polystyrene plates in 384-well (Greiner, #784075) or 1536-well format (Greiner, #782075). Compounds were added with top concentration of 2 mM with 11 point, 3-fold dilution series. Enzyme solution (contains 2×DGK enzyme concentration in 1× assay buffer) was added to the plate in 2 μL/well volume, followed by 2 μL/well of substrate solution (contains 2× concentration of ATP and DLG substrate in 1× assay buffer). Plates were then centrifuged for 1 min at 1200 RPM and sealed or lidded. For 4 μL reaction volume, test compounds were therefore diluted 100× to final top concentration of […]. After 90 minute incubation, reactions were quenched by addition of 2 μL/well Promega ADP-Glo Reagent, followed by centrifugation and lidding. After 60 min incubation, 2 μL/well Promega Kinase Detection Reagent was added, plates centrifuged, and incubated for 30 min. Plates were then read using Luminescence method on BMG PHERAstar FSX plate reader. Percent inhibition was calculated and IC50s were determined using 4-parameter fit in Genedata Screener. Labcyte Echo acoustic dispenser was used for compound addition, and Formulatrix Tempest liquid handler was used for all reagent dispenses. The compounds of the disclosure were tested in one or more of the assays described above, and the resulting data are shown in Table A.

DGKζ = biological target: T2, DGKζ (Homo sapiens, UniProt Q13574); test: In vitro DGKζ inhibition assay (ADP-Glo); assay type: biochemical; conditions: His-tagged human recombinant enzyme, 0.4 nM DGKζ, 30 μM ATP, 20 μM DLG, 90 minute incubation
T2 construct: His; purchased Signal Chem D30-10H
Protocol: as §1, §2

T1 sequence (P23743 whole entry): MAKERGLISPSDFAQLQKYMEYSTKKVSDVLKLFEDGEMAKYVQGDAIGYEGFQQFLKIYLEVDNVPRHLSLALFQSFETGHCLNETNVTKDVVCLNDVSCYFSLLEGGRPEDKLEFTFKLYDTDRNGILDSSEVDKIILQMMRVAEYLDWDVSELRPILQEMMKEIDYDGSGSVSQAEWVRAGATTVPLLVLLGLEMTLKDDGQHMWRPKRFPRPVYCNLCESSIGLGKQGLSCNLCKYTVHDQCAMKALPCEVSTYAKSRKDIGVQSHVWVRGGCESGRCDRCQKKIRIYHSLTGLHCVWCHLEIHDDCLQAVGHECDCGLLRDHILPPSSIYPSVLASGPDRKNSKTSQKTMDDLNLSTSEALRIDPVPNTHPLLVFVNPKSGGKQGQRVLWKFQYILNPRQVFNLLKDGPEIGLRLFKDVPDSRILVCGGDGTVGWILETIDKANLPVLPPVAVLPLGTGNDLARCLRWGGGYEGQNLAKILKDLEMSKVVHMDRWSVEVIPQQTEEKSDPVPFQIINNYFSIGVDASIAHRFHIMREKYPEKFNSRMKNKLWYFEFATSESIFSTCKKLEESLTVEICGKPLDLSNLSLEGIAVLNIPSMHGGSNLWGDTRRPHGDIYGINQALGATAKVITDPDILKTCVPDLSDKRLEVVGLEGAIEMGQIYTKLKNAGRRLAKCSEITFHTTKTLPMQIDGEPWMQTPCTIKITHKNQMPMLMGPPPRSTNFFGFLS
T2 sequence (Q13574 whole entry): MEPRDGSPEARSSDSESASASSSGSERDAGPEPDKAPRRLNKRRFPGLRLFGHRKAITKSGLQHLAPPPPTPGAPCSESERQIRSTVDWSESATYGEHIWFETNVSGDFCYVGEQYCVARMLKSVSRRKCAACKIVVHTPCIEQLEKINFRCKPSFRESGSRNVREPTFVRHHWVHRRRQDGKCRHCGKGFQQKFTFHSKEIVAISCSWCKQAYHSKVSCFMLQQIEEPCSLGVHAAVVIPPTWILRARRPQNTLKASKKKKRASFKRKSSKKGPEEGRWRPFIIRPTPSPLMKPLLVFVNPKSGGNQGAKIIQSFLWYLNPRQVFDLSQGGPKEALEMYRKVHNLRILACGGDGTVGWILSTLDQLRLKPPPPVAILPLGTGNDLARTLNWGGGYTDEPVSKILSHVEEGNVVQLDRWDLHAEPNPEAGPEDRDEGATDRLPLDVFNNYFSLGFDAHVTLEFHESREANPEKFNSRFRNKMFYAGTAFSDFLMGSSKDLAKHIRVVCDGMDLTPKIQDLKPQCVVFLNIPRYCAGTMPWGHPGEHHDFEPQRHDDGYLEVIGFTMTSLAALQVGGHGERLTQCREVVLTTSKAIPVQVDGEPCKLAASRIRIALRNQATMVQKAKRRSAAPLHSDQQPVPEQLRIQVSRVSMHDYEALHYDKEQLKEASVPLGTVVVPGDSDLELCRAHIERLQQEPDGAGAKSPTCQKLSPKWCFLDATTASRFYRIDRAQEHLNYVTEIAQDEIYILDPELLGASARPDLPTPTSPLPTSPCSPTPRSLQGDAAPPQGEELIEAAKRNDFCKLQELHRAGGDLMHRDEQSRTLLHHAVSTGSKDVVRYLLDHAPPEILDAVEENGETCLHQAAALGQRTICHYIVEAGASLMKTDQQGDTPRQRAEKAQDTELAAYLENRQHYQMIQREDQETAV

Structure (SMILES) | IC50 (DGKα) | IC50 (DGKζ)
CN(c1c(/C=C(\F)c2csc(-c3ccnnc3)n2)ccc(Oc2ccccc2F)c1C(F)(F)F)[C@H]1CCNC[C@H]1F [Example 4, (3R,4S)-3-Fluoro-N-(6-((Z)-2-fluoro-2-(2-(pyridazin-4-yl)thiazol-4-yl)vinyl)-3-(2-fluorophenoxy)-2-(trifluoromethyl)phenyl)-N-methylpiperidin-4-amine] | 20 to 200 nM | 20 to 200 nM
CCN1CCC2(CC1)CN(c1c(/C=C(\F)c3csc(-c4ccnnc4)n3)ccc(Oc3ccccc3)c1C(F)(F)F)CCO2 [Example 6, (Z)-9-Ethyl-4-(6-(2-fluoro-2-(2-(pyridazin-4-yl)thiazol-4-yl)vinyl)-3-phenoxy-2-(trifluoromethyl)phenyl)-1-oxa-4,9-diazaspiro[5.5]undecane] | 20 to 200 nM | ≤ 20 nM
F/C(=C\c1ccc(OC2CCC2)c(C(F)(F)F)c1N1CCOC2(CCNCC2)C1)c1csc(-c2ccnnc2)n1 [Example 7, (Z)-4-(3-Cyclobutoxy-6-(2-fluoro-2-(2-(pyridazin-4-yl)thiazol-4-yl)vinyl)-2-(trifluoromethyl)phenyl)-1-oxa-4,9-diazaspiro[5.5]undecane] | ≤ 20 nM | 20 to 200 nM
F/C(=C\c1ccc(Oc2ccccc2)c(C(F)(F)F)c1N1CCCC2(CCNCC2)C1)c1csc(N2CCC(F)(F)C2)n1 [Example 9, (Z)-2-(3,3-Difluoropyrrolidin-1-yl)-4-(1-fluoro-2-(4-phenoxy-2-(2,9-diazaspiro[5.5]undecan-2-yl)-3-(trifluoromethyl)phenyl)vinyl)thiazole] | 20 to 200 nM | 200 to 2000 nM
F/C(=C\c1ccc(Oc2cccc(F)c2F)c(C(F)(F)F)c1N1CCCC2(CCN(CC3CC3)CC2)C1)c1ccn(-c2ccnnc2)n1 [Example 10, (Z)-9-(Cyclopropylmethyl)-2-(3-(2,3-difluorophenoxy)-6-(2-fluoro-2-(1-(pyridazin-4-yl)-1H-pyrazol-3-yl)vinyl)-2-(trifluoromethyl)phenyl)-2,9-diazaspiro[5.5]undecane] | 20 to 200 nM | ≤ 20 nM
F/C(=C\c1ccc(OC2CCCCC2)c(C(F)(F)F)c1N1CCCC2(CCN(CC3CC3)CC2)C1)c1ccn(-c2ccnnc2)n1 [Example 15, (Z)-2-(3-(Cyclohexyloxy)-6-(2-fluoro-2-(1-(pyridazin-4-yl)-1H-pyrazol-3-yl)vinyl)-2-(trifluoromethyl)phenyl)-9-(cyclopropylmethyl)-2,9-diazaspiro[5.5]undecane] | 20 to 200 nM | ≤ 20 nM
F/C(=C\c1ccc(Oc2ccccc2)c(C(F)(F)F)c1N1CCCC2(CCN(CC3CC3)CC2)C1)c1csc(-c2ccnnc2)n1 [Example 18, (Z)-4-(2-(2-(9-(Cyclopropylmethyl)-2,9-diazaspiro[5.5]undecan-2-yl)-4-phenoxy-3-(trifluoromethyl)phenyl)-1-fluorovinyl)-2-(pyridazin-4-yl)thiazole] | 20 to 200 nM | ≤ 20 nM
F/C(=C\c1ccc(Oc2cccc(F)c2F)c(C(F)(F)F)c1N1CCCC2(CN(CC3CC3)C2)C1)c1ccn(-c2ccnnc2)n1 [Example 20, (Z)-2-(Cyclopropylmethyl)-6-(3-(2,3-difluorophenoxy)-6-(2-fluoro-2-(1-(pyridazin-4-yl)-1H-pyrazol-3-yl)vinyl)-2-(trifluoromethyl)phenyl)-2,6-diazaspiro[3.5]nonane] | ≤ 20 nM | 20 to 200 nM
F/C(=C\c1ccc(Oc2ccccc2)c(C(F)(F)F)c1N1CCCC2(CCN(CC3CC3)CC2)C1)c1ccn(-c2ccnnc2)n1 [Example 21, (Z)-9-(Cyclopropylmethyl)-2-(6-(2-fluoro-2-(1-(pyridazin-4-yl)-1H-pyrazol-3-yl)vinyl)-3-phenoxy-2-(trifluoromethyl)phenyl)-2,9-diazaspiro[5.5]undecane] | 20 to 200 nM | ≤ 20 nM

Continued, values first:

IC50 (DGKα) | IC50 (DGKζ) | Structure (SMILES)
≤ 20 nM | ≤ 20 nM | NC[C@@H]1CCCN(c2c(/C=C(\F)c3csc(-c4ccnnc4)n3)ccc(Oc3ccccc3F)c2C(F)(F)F)C1 [Example 1, (S,Z)-(1-(6-(2-Fluoro-2-(2-(pyridazin-4-yl)thiazol-4-yl)vinyl)-3-(2-fluorophenoxy)-2-(trifluoromethyl)phenyl)piperidin-3-yl)methanamine]
≤ 20 nM | ≤ 20 nM | NC[C@@H]1CCCN(c2c(/C=C(\F)c3ccn(-c4ccnnc4)n3)ccc(Oc3ccccc3F)c2C(F)(F)F)C1 [Example 2, (S,Z)-(1-(6-(2-Fluoro-2-(1-(pyridazin-4-yl)-1H-pyrazol-3-yl)vinyl)-3-(2-fluorophenoxy)-2-(trifluoromethyl)phenyl)piperidin-3-yl)methanamine]
≤ 20 nM | ≤ 20 nM | COc1cc(F)ccc1Oc1ccc(/C=C(\F)c2csc(-c3ccnnc3)n2)c(N2CCC[C@@H](CN)C2)c1Cl [Example 3, (S,Z)-(1-(2-Chloro-6-(2-fluoro-2-(2-(pyridazin-4-yl)thiazol-4-yl)vinyl)-3-(4-fluoro-2-methoxyphenoxy)phenyl)piperidin-3-yl)methanamine]
≤ 20 nM | ≤ 20 nM | F/C(=C\c1ccc(Oc2ccccc2)c(C(F)(F)F)c1N1CCOC2(CCNCC2)C1)c1csc(-c2ccnnc2)n1 [Example 5, (Z)-4-(6-(2-Fluoro-2-(2-(pyridazin-4-yl)thiazol-4-yl)vinyl)-3-phenoxy-2-(trifluoromethyl)phenyl)-1-oxa-4,9-diazaspiro[5.5]undecane]
≤ 20 nM | 20 to 200 nM | F/C(=C\c1ccc(Oc2cccc(F)c2F)c(C(F)(F)F)c1N1CCCC2(CCNCC2)C1)c1csc(-c2cnsc2)n1 [Example 8, (Z)-4-(4-(2-(4-(2,3-Difluorophenoxy)-2-(2,9-diazaspiro[5.5]undecan-2-yl)-3-(trifluoromethyl)phenyl)-1-fluorovinyl)thiazol-2-yl)isothiazole]
≤ 20 nM | ≤ 20 nM | F/C(=C\c1ccc(Oc2cccc(F)c2F)c(C(F)(F)F)c1N1CCCC2(CCN(CC3CC3)CC2)C1)c1csc(-c2ccnnc2)n1 [Example 11, (Z)-4-(2-(2-(9-(Cyclopropylmethyl)-2,9-diazaspiro[5.5]undecan-2-yl)-4-(2,3-difluorophenoxy)-3-(trifluoromethyl)phenyl)-1-fluorovinyl)-2-(pyridazin-4-yl)thiazole]
≤ 20 nM | ≤ 20 nM | CC(C)(O)CN1CCC2(CCCN(c3c(/C=C(\F)c4csc(-c5ccnnc5)n4)ccc(Oc4ccccn4)c3C(F)(F)F)C2)CC1 [Example 12, (Z)-1-(2-(6-(2-Fluoro-2-(2-(pyridazin-4-yl)thiazol-4-yl)vinyl)-3-(pyridin-2-yloxy)-2-(trifluoromethyl)phenyl)-2,9-diazaspiro[5.5]undecan-9-yl)-2-methylpropan-2-ol]
≤ 20 nM | ≤ 20 nM | OCCN1CCC2(CCCN(c3c(/C=C(\F)c4csc(-c5ccnnc5)n4)ccc(Oc4ccccn4)c3C(F)(F)F)C2)CC1 [Example 13, (Z)-2-(2-(6-(2-Fluoro-2-(2-(pyridazin-4-yl)thiazol-4-yl)vinyl)-3-(pyridin-2-yloxy)-2-(trifluoromethyl)phenyl)-2,9-diazaspiro[5.5]undecan-9-yl)ethan-1-ol]
≤ 20 nM | ≤ 20 nM | F/C(=C\c1ccc(Oc2ccccn2)c(C(F)(F)F)c1N1CCCC2(CCN(CC3CC3)CC2)C1)c1csc(-c2ccnnc2)n1 [Example 14, (Z)-4-(2-(2-(9-(Cyclopropylmethyl)-2,9-diazaspiro[5.5]undecan-2-yl)-4-(pyridin-2-yloxy)-3-(trifluoromethyl)phenyl)-1-fluorovinyl)-2-(pyridazin-4-yl)thiazole]
≤ 20 nM | ≤ 20 nM | F/C(=C\c1ccc(Oc2ccccn2)c(C(F)(F)F)c1N1CCCC2(CCN(CC3CC3)CC2)C1)c1ccn(-c2ccnnc2)n1 [Example 16, (Z)-9-(Cyclopropylmethyl)-2-(6-(2-fluoro-2-(1-(pyridazin-4-yl)-1H-pyrazol-3-yl)vinyl)-3-(pyridin-2-yloxy)-2-(trifluoromethyl)phenyl)-2,9-diazaspiro[5.5]undecane]
≤ 20 nM | ≤ 20 nM | CCN1CCC2(CCCN(c3c(/C=C(\F)c4csc(-c5ccnnc5)n4)ccc(Oc4ccccc4)c3C(F)(F)F)C2)CC1 [Example 17, (Z)-4-(2-(2-(9-Ethyl-2,9-diazaspiro[5.5]undecan-2-yl)-4-phenoxy-3-(trifluoromethyl)phenyl)-1-fluorovinyl)-2-(pyridazin-4-yl)thiazole]
≤ 20 nM | ≤ 20 nM | CCN1CC2(CCCN(c3c(/C=C(\F)c4ccn(-c5ccnnc5)n4)ccc(Oc4cccc(F)c4F)c3C(F)(F)F)C2)C1 [Example 19, (Z)-6-(3-(2,3-Difluorophenoxy)-6-(2-fluoro-2-(1-(pyridazin-4-yl)-1H-pyrazol-3-yl)vinyl)-2-(trifluoromethyl)phenyl)-2-ethyl-2,6-diazaspiro[3.5]nonane]

Source: patent US20240270739A1, “Heteroaryl Fluoroalkenes As DGK Inhibitors” (Incyte Corporation, priority 2023, published 2024)
